In article PMC11472328, “Targeting Plasmodium falciparum IspD in the Methyl-D-erythritol Phosphate Pathway: Urea-Based Compounds with Nanomolar Potency on Target and Low-Micromolar Whole-Cell Activity” (Journal of Medicinal Chemistry, 2024):
Converted amounts (≈) assume the structure as drawn. Where two headings read alike, the source gives them in different places.

Key:
EcIspE = EcIspE (Escherichia coli, UniProt P62615); assay: Activity against auxiliary enzyme EcIspE; format: biochemical
PK-LDH = assay: Activity against auxiliary enzymes PK-LDH; format: biochemical
E. coli K12 = assay: Growth inhibition of E. coli K12; format: cell-based; details: Escherichia coli
[1] = test system: Pf3D7 (WT) and MMV008138 resistant parasites (R2 and R3); assay: IDP rescue assay; format: cell-based, Plasmodium falciparum; details: 200 μM IDP, 72 h
Experimental: The parasite growth was quantified by measuring DNA content using PicoGreen assay (Invitrogen). IC50 values were calculated by nonlinear regression analysis using GraphPad Prism software and reflect the mean ± standard error of the mean (SEM) from at least three independent experiments. Statistical comparison of the values was done via one-way ANOVA.

[2] = test system: Mtb H37Rv mCherry 10 strain; assay: MIC 90 against Mtb H37Rv mCherry 10 strain; format: cell-based; details: Mycobacterium tuberculosis, read-out: MIC 90 (growth inhibition) of Mtb H37Rv mCherry 10 strain
malaria = test system: malaria; set-up: method as in Fernandes et al. [6]−[8]; details: children, combination therapy, meta-analysis ref Fernandes et al. [6]−[8]; cited from earlier work
PfIspD [3] = target: T1, PfIspD (Plasmodium falciparum, UniProt Q8I273); assay: Photometric in vitro PfIspD assay; format: biochemical; details: mean ± SD, n ≥ 2; n.a. = absence of activity
T1 sequence (Q8I273 1-734): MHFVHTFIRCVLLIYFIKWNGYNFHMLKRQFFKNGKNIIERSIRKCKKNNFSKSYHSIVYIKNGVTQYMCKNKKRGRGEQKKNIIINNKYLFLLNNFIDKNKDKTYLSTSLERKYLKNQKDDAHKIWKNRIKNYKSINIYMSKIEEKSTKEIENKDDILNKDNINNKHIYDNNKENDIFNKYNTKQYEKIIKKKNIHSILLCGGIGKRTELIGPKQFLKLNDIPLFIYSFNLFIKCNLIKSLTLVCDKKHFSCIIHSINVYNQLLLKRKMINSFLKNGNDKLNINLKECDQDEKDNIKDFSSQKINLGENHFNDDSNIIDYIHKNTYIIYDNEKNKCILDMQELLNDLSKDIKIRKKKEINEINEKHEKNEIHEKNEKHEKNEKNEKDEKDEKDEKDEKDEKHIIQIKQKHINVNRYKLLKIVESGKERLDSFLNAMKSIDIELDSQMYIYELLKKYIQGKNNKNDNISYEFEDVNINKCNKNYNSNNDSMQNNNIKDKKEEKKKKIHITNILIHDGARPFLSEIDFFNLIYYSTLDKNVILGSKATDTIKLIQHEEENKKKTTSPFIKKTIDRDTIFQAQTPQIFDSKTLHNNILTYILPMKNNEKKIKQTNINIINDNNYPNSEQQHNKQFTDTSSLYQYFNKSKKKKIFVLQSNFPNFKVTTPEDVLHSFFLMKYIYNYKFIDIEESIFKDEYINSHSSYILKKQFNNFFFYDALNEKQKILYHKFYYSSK
Experimental: Dilution series (1:2) of inhibitors in DMSO covered the concentration range of approximately 200–0.01 μM. After finishing the dilution series, the final volume of compound solution in DMSO per well was 3 μL. For the IspD assay, 30 μL aliquots of a solution containing 100 mM Tris-HCl, pH 7.6, 0.02% NaN3, 1 mM MEP and 1 mM CTP were added to microplate wells preloaded with 3 μL of DMSO containing test compounds. […] Initial rates were estimated using Softmax Pro 6.1 software (Molecular Devices, Biberach an der Riss, Germany). IC50 values were determined with a nonlinear regression method using the program Dynafit.[21]

PfNF54 = assay: Whole-cell assay, [3H]-hypoxanthine incorporation; format: cell-based, Plasmodium falciparum; details: mean ± SD, n.a. = absence of activity
Experimental: After incubation for 48 h, 0.25 μCi of [^3H]-hypoxanthine was added per well and plates were incubated for an additional 24 h.

PfIspD [4] = target: T1, PfIspD; assay: Determination of enzyme kinetics, LC-MS based IspD assay; format: biochemical; details: our results, n = 2, mean ± SD; read-out: Km^CTP
Experimental: (§1) A volume of 80 μL Buffer A containing 100 mM Tris-HCl pH 7.6, 1 mM DTT, 1 mM MgCl2, 50 nM PfIspD were added to well A1 96-well plate while 50 μL were added to the rest of the wells. A volume of 20 μL of 10 mM CTP was added to the first well, then a serial dilution was conducted by moving 50 μL. To start the reaction, we then added on buffer A 50 μL of Buffer B containing 100 mM Tris-HCl pH 7.6, 1 mM DTT, and 1 mM MEP. The assay plate was incubated at 37 °C for 40 min, after which, the protein was denaturated by heating up the plate to 95 °C for 5 min. The plate was then centrifuged at 4000 rpm at 4 °C for 5 min to precipitate the protein. […] Thereafter, 10 μL of each of the supernatants from the assay plate were added to the plate containing the mixture with our internal standard. The plate was centrifuged again at 4000 rpm at 4 °C for 5 min, after which, 50 μL of the supernatant was transferred to an LC-MS plate and closed with a silicon cover. LC-MS conditions and data analysis methods we used were described above. The peak area for each conditions were used to calculate the Michaelis–Menten kinetic parameters using Graphpad Prism v 9. Measurements were performed in duplicates, repeated at least two times from two to three independent experiments.

IspD = details: cited from earlier work
[5] = substrate: C[C@](O)(CO)[C@H](O)COP(=O)(O)O; assay: Determination of enzyme kinetics, LC-MS based IspD assay; format: biochemical, Plasmodium falciparum; details: other: our results, n = 2, mean ± SD; pH 7.6
Experimental: as §1

Sequence of EcIspE (P62615 whole entry): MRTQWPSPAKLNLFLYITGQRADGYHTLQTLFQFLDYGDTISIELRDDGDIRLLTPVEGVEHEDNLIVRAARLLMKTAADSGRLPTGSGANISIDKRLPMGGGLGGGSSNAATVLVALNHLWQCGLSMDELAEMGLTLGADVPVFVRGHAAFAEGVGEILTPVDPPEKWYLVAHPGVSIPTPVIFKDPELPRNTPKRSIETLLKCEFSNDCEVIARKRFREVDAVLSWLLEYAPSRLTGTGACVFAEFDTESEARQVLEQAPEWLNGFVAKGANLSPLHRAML

O=C(Nc1ccc([N+](=O)[O-])cc1)Nc1ccc(F)c(S(=O)(=O)N2CCOCC2)c1 [Compound 31, 1-(4-Fluoro-3-(morpholinosulfonyl)phenyl)-3-(4-nitrophenyl)urea]
IC50 (EcIspE): 75 ± 11 µM
IC50 (PK-LDH): > 500 µM

O=C(Nc1ccc(Cl)cc1)Nc1cccc(S(=O)(=O)N2CCCC2)c1 [Compound 5, 1-(4-Chlorophenyl)-3-(3-(pyrrolidin-1-ylsulfonyl)phenyl)urea]
inhibition at 100 µM (E. coli K12): 45 ± 6%

CS(=O)(=O)c1ccc(NC(=O)Nc2cccc(S(=O)(=O)N3CCCC3)c2)cc1 [Compound 9, 1-(4-(Methylsulfonyl)phenyl)-3-(3-(pyrrolidin-1-ylsulfonyl)phenyl)urea]
IC50 (EcIspE): > 500 µM
IC50 (PK-LDH): > 500 µM

O=C(Nc1ccc([N+](=O)[O-])cc1)Nc1cccc(S(=O)(=O)N2CCOCC2)c1 [Compound 27, 1-(3-(Morpholinosulfonyl)phenyl)-3-(4-nitrophenyl)urea]
IC50 (EcIspE): > 500 µM
IC50 (PK-LDH): 104 ± 19 µM

N#Cc1ccc(NC(=O)Nc2cccc(S(=O)(=O)N3CCCC3)c2)cc1 [Compound 10, 1-(4-Cyanophenyl)-3-(3-(pyrrolidin-1-ylsulfonyl)phenyl)urea]
effect of IDP supplementation on sensitivity [1]: equalized the sensitivity of the resistant strains and the wild type
MIC90 [2]: 64 µM (≈ 23.7 µg/mL)
inhibition at 100 µM (E. coli K12): 46 ± 4%

O=C(Nc1ccc([N+](=O)[O-])cc1)Nc1cccc(S(=O)(=O)N2CCCC2)c1 [Compound 8, 1-(4-Nitrophenyl)-3-(3-(pyrrolidin-1-ylsulfonyl)phenyl)urea]
inhibition at 100 µM (E. coli K12): 14 ± 5%

O=CN(O)CCCP(=O)(O)O [fosmidomycin]
cure rate (malaria): 85%

1-(4-Methyl-3-(morpholinosulfonyl)phenyl)-3-(4-nitrophenyl)urea [Compound 33]
IC50 (PfIspD [3]): > 10000 nM

O=C(Nc1ccc([N+](=O)[O-])cc1)Nc1cccc(S(=O)(=O)N2CCCCC2)c1 [Compound 26, 1-(4-Nitrophenyl)-3-(3-(piperidin-1-ylsulfonyl)phenyl)urea]
IC50 (EcIspE): 49 ± 7 µM
IC50 (PK-LDH): > 500 µM

COC(=O)c1ccc(NC(=O)Nc2cccc(S(=O)(=O)N3CCCC3)c2)cc1 [Compound 7, Methyl 4-(3-(3-(Pyrrolidin-1-ylsulfonyl)phenyl)ureido)benzoate]
IC50 (EcIspE): > 500 µM
IC50 (PK-LDH): 242 ± 72 µM

Nc1ccc(NC(=O)Nc2cccc(S(=O)(=O)N3CCCC3)c2)cc1 [Compound 4, 1-(4-Aminophenyl)-3-(3-(pyrrolidin-1-ylsulfonyl)phenyl)urea]
PfNF54 (IC50 μM) (PfNF54): lacking whole-cell activity

Nc1ccn([C@@H]2O[C@H](COP(=O)(O)OP(=O)(O)OP(=O)(O)O)[C@@H](O)[C@H]2O)c(=O)n1 [CTP, cytidine triphosphate]
Km (PfIspD [4]): 58 ± 9 µM
Km (IspD; ref Ghavami et al.[18], read-out: Km^CTP): 9 ± 3 µM
Km (IspD; ref Imlay et al.[12], read-out: Km^CTP): 59 ± 4 µM

C[C@](O)(CO)[C@H](O)COP(=O)(O)O [MEP, 2-C-methylerythritol-D-erythritol-4-phosphate]
Km (IspD; ref Ghavami et al.[18], read-out: Km^MEP): 12 ± 3 µM
Km (IspD; ref Wu et al.[14], read-out: Km^MEP): 61 µM

O=C(Nc1ccc(C(F)(F)F)cc1)Nc1cccc(S(=O)(=O)N2CCCC2)c1 [Compound 11, 1-(3-(Pyrrolidin-1-ylsulfonyl)phenyl)-3-(4-(trifluoromethyl)phenyl)urea]
IC50 (EcIspE; auxiliary enzyme, read-out: EcIspE (IC50 µM)): 73 ± 15 µM
IC50 (PK-LDH): 73 ± 15 µM

B1: PfIspD (Plasmodium falciparum 3D7) (protein)
chain: T1 sequence (Q8I273 1-734)
Km [5]: 46 ± 3 µM
